In brackets after ≈: the same amount, converted by molar mass.
Legend:
Experiment in all cases: ≥ marks a high value that may be exact or a test limit, other limits are often not marked, values filed in µg/mL are converted to µM
[1] = system: Staphylococcus aureus M838-17
[2] = system: Klebsiella pneumoniae E406-17
[3] = system: Pseudomonas aeruginosa E411-17
[4] = system: Pseudomonas aeruginosa PAO1
[5] = system: Pseudomonas aeruginosa 910
[6] = system: Pseudomonas aeruginosa 253
[7] = system: Pseudomonas aeruginosa 919
[8] = system: Escherichia coli ATCC 25922
Escherichia coli ESBL = system: Escherichia coli ESBL
Escherichia coli ESBL 4 = system: Escherichia coli ESBL 4
[9] = system: Escherichia coli ATCC 43827
[10] = system: Escherichia coli ATCC 35218
[11] = system: Pseudomonas aeruginosa ATCC 27853
[12] = system: Escherichia coli ATCC 11775
Aspergillus niger = system: Aspergillus niger
Micrococcus luteus A270 = system: Micrococcus luteus A270
Cryptococcus neoformans = system: Cryptococcus neoformans
Penicillium expansum = system: Penicillium expansum
Escherichia coli SBS 363 = system: Escherichia coli SBS 363
[13] = system: Staphylococcus aureus ATCC 25923
Candida albicans = system: Candida albicans
[14] = system: Candida albicans ATCC 1023

Structure (SMILES): CC(C)C[C@H](NC(=O)[C@H](Cc1c[nH]c2ccccc12)NC(=O)[C@H](Cc1c[nH]c2ccccc12)NC(=O)[C@H](Cc1c[nH]c2ccccc12)NC(=O)[C@H](Cc1c[nH]c2ccccc12)NC(=O)[C@H](CCCN=C(N)N)NC(=O)[C@H](CCCN=C(N)N)NC(=O)[C@@H](N)CCCN=C(N)N)C(N)=O [RRRWWWWL]
- MIC [1]: 3.1 µM (≈ 4.17 µg/mL)
- MIC [2]: 6.25 µM (≈ 8.4 µg/mL)
- MIC [3]: 6.25 µM (≈ 8.4 µg/mL)

Structure (SMILES): CC[C@H](C)[C@H](N)C(=O)N[C@@H](CC(C)C)C(=O)N[C@@H](CCCCN)C(=O)N[C@@H](Cc1c[nH]c2ccccc12)C(=O)N[C@@H](CCCCN)C(=O)N[C@@H](CCCN=C(N)N)C(=O)N[C@@H](CCCCN)C(=O)N[C@@H](Cc1c[nH]c2ccccc12)C(=O)N[C@@H](Cc1c[nH]c2ccccc12)C(=O)N[C@@H](CCCCN)C(=O)N[C@@H](Cc1c[nH]c2ccccc12)C(=O)N[C@@H](Cc1ccccc1)C(=O)N[C@@H](CCCN=C(N)N)C(N)=O [ILKWKRKWWKWFR]
- MIC [4]: 2 µM (≈ 3.92 µg/mL)
- MIC [5]: 4 µM (≈ 7.84 µg/mL)
- MIC [6]: 8 µM (≈ 15.7 µg/mL)
- MIC [7]: ≥ 32 µM

Structure (SMILES): CC[C@H](C)[C@H](NC(=O)[C@H](Cc1ccc(O)cc1)NC(=O)[C@H](CCC(N)=O)NC(=O)[C@H](CC(C)C)NC(=O)[C@H](C)NC(=O)[C@H](CCCCN)NC(=O)[C@H](CCCCN)NC(=O)[C@H](CCSC)NC(=O)[C@H](CCCCN)NC(=O)[C@@H](N)CCCCN)C(=O)N[C@@H](CCCCN)C(=O)N[C@@H](CC(C)C)C(=O)N[C@@H](CC(C)C)C(=O)N[C@@H](CCCCN)C(N)=O [KKMKKALQYIKLLK]
- MIC [8]: 50 µM (≈ 86.6 µg/mL)
- MIC (Escherichia coli ESBL): 25 µM (≈ 43.3 µg/mL)
- MIC (Escherichia coli ESBL 4): ≥ 100 µM
- MIC [9]: 25 µM (≈ 43.3 µg/mL)
- MIC [10]: 25 µM (≈ 43.3 µg/mL)
- MIC [11]: > 100 µM
- MIC [12]: ≥ 100 µM

Structure (SMILES): CSCC[C@H](NC(=O)CNC(=O)[C@H](CC(C)C)NC(=O)[C@H](Cc1ccccc1)NC(=O)CNC(=O)[C@H](CO)NC(=O)[C@@H]1CCCN1C(=O)CN)C(=O)N[C@@H](CCCN=C(N)N)C(=O)O [GPSGFLGMR]
- MIC (Aspergillus niger): ≥ 128 µM
- MIC (Micrococcus luteus A270): ≥ 128 µM
- MIC (Cryptococcus neoformans): ≥ 128 µM
- MIC [11]: 64 µM (≈ 58.9 µg/mL)
- MIC (Penicillium expansum): ≥ 128 µM
- MIC (Escherichia coli SBS 363): ≥ 100 µM

Structure (SMILES): CC[C@H](C)[C@H](NC(=O)CN)C(=O)N[C@@H](CC(C)C)C(=O)N[C@@H](CC(=O)O)C(=O)N[C@@H](C)C(=O)N[C@H](C(=O)N[C@@H](CCCCN)C(=O)N[C@@H](C)C(=O)N[C@H](C(=O)N[C@@H](C)C(=O)N[C@@H](CCCCN)C(=O)N[C@@H](C)C(=O)N[C@@H](C)C(=O)NCC(N)=O)[C@@H](C)CC)[C@@H](C)CC [GILDAIKAIAKAAG]
- MIC [8]: 24.4 µM (≈ 32 µg/mL)
- MIC [11]: 48.8 µM (≈ 64 µg/mL)
- MIC [13]: 6.1 µM (≈ 7.99 µg/mL)
- MIC (Candida albicans): 195 µM (≈ 256 µg/mL)
- MIC [14]: ≥ 195 µM
